Experimental data taken from ChEMBL document CHEMBL1129896, “New non peptidic C5a receptor antagonists” (Bioorg Med Chem Lett, 1997).
pIC50: −log10 of the molar value.

molecular target: T1, C5a anaphylatoxin chemotactic receptor 1 (Homo sapiens, UniProt P21730); assay: Compound was evaluated for the antagonistic activity against C5a anaphylatoxin chemotactic receptor in human neutrophil C5a stimulated respiratory burst assay; type: functional; settings: not given
T1 sequence (P21730 whole entry): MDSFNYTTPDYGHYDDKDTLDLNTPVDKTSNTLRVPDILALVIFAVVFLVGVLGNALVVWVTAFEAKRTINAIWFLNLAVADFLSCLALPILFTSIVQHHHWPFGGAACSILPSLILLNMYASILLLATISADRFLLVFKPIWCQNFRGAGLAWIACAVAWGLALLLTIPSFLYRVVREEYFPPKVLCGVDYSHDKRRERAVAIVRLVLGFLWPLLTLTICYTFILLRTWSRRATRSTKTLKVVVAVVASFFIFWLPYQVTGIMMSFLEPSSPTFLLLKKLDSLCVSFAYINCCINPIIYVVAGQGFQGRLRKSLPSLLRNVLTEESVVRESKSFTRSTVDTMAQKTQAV

SMILES | pIC50
CNC(N)=Nc1ccc(OCCc2ccccc2)c(-c2ccccc2)c1 | 6.10

molecular target: T1, C5a anaphylatoxin chemotactic receptor 1; assay: Binding affinity against C5a anaphylatoxin chemotactic receptor assayed on human monocyte cell line U937; type: cell-based, U-937; settings: not given

SMILES | pIC50
C/N=C(/N)Nc1ccc(OCC2CCCCC2)c(OCc2ccccc2)c1 | 5.10
CCCCOc1ccc(NC(=N)NC)cc1OCc1ccccc1 | 4.52
CNC(N)=Nc1ccc(OCCCCc2ccccc2)c(OCc2ccccc2)c1 | 5.40
N=C(N)Nc1ccc(OCc2ccccc2)c(OCc2ccccc2)c1 | < 4.00
CNC(N)=Nc1ccc(OCC2CCCCC2)c(-c2ccccc2)c1 | 5.52
CNC(N)=Nc1ccc(OCCc2ccccc2)c(OCc2ccccc2)c1 | 5.12
C/N=C(/N)Nc1ccc(OCCC2CCCCC2)c(-c2ccccc2)c1 | 6.00
CNC(N)=Nc1ccc(OCc2ccccc2)c(-c2ccc(Cl)cc2)c1 | 4.30
C/N=C(/N)Nc1ccc(OCc2ccccc2)c(-c2cccc(F)c2)c1 | 5.10
C/N=C(\N)Nc1ccc(OCc2ccccc2)c(OCc2ccccc2)c1 | 4.52
CNC(N)=Nc1ccc(OCc2ccccc2)c(-c2ccc(OC)cc2)c1 | 4.27
CNC(=N)Nc1ccc(OCc2ccccc2)c(-c2cccc(OC)c2)c1 | 5.05
CNC(N)=Nc1ccc(OCCC2CCCCC2)c(OCc2ccccc2)c1 | 5.05
C/N=C(/N)Nc1ccc(OCc2ccccc2)c(-c2cccs2)c1 | 5.05
C/N=C(/N)Nc1ccc(OCc2ccccc2)c(Oc2ccccc2)c1 | 5.40
CNC(N)=Nc1ccc(OCCCc2ccccc2)c(OCc2ccccc2)c1 | 5.22
CNC(N)=Nc1ccc(OCc2ccccc2)c(OC2CCCC2)c1 | 4.60
C/N=C(/N)Nc1ccc(OCc2ccccc2)c(-c2cccc3ccccc23)c1 | 5.35
CNC(N)=Nc1ccc(OCCCc2ccccc2)c(-c2ccccc2)c1 | 6.00
CNC(N)=Nc1ccc(OCc2ccccc2)c(-c2ccccc2)c1 | 5.70

molecular target: T2, C5a anaphylatoxin chemotactic receptor 1 (Homo sapiens) (UniProt P21730); assay: Tested in vitro for the inhibition against C5a anaphylatoxin chemotactic receptor assayed on human monocyte cell line U937 at 30 uM; type: cell-based; settings: U-937
T2 sequence (whole entry): T1 sequence (P21730 whole entry)

SMILES | inhibition
CC/N=C(\N)Nc1ccc(OCc2ccccc2)c(OCc2ccccc2)c1 | 40%
CNC(=N)Nc1ccc(OC)c(OCc2ccccc2)c1 | 20%
C/N=C(/N)Nc1ccc(Oc2ccccc2)c(OCc2ccccc2)c1 | 32%
C/N=C(/N)Nc1ccc(OCc2ccccc2)c(-c2ccc(F)cc2)c1 | 20%

molecular target: T2, C5a anaphylatoxin chemotactic receptor 1 (Homo sapiens); assay: Tested in vitro for the inhibition against C5a anaphylatoxin chemotactic receptor assayed on human monocyte cell line U937; Inactive at 30 uM; type: cell-based; settings: U-937

SMILES | inhibition
C/N=C(/N)c1ccc(OCc2ccccc2)c(OCc2ccccc2)c1 | < 20%
CNC(=N)Nc1ccc(OCc2ccccc2)c(-c2ccccc2OC)c1 | < 20%
NCc1ccc(OCc2ccccc2)c(OCc2ccccc2)c1 | < 20%
CNC(=N)Cc1ccc(OCc2ccccc2)c(OCc2ccccc2)c1 | < 20%
N=C(N)NCc1ccc(OCc2ccccc2)c(OCc2ccccc2)c1 | < 20%
CC(=N)Nc1ccc(OCc2ccccc2)c(OCc2ccccc2)c1 | < 20%
C/N=C(/N)Nc1ccc(OCc2ccccc2)c(OCCc2ccccc2)c1 | < 20%
Nc1ccc(OCc2ccccc2)c(OCc2ccccc2)c1 | < 20%
